Measured values taken from ChEMBL document CHEMBL1133355, “Pyrrolo[3,2,1-ij]quinoline derivatives, a 5-HT2c receptor agonist with selectivity over the 5-HT2a receptor: potential therapeutic applications for epilepsy and obesity” (Bioorg Med Chem Lett, 2000).

Columns and labels:
[1] = Binding ratio of compound to 5-HT2a to that of 5-HT2c was determined
[2] = target: T1, 5-hydroxytryptamine receptor 2C (Homo sapiens, UniProt P28335); assay: In vitro binding affinity towards human 5-hydroxytryptamine 2C receptor expressed in HEK293 cells was determined using [3H]mesulergine as radioligand; assay type: cell-based
T1 sequence (P28335 whole entry): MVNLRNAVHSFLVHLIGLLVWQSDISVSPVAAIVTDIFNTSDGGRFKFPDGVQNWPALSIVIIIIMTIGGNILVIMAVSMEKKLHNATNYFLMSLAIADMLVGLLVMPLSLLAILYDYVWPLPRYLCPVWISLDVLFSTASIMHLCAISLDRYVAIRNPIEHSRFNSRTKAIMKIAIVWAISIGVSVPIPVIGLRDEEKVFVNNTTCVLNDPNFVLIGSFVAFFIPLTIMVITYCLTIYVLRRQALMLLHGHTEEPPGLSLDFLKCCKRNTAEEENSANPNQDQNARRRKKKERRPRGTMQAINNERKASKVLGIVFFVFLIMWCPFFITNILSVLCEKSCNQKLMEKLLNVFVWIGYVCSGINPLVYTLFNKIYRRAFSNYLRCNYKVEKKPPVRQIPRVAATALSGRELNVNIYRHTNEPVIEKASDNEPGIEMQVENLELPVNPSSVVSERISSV

[3] = target: T2, 5-hydroxytryptamine receptor 2A (Homo sapiens, UniProt P28223); assay: In vitro binding affinity towards human 5-hydroxytryptamine 2A receptor expressed in HEK293 cells was determined using [3H]ketanserin as radioligand; assay type: cell-based
T2 sequence (P28223 whole entry): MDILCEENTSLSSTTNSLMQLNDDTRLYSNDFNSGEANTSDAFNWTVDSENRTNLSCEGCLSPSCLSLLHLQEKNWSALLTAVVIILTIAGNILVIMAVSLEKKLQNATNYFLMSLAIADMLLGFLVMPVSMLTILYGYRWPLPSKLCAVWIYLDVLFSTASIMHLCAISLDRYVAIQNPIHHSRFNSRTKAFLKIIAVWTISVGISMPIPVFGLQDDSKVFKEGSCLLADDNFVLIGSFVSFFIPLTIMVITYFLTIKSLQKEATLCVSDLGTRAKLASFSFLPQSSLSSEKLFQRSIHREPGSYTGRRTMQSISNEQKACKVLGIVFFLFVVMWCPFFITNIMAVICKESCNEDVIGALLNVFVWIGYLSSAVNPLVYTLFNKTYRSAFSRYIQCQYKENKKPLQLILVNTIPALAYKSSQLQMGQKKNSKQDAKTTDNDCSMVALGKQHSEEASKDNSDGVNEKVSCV

[4] = target: T1, 5-hydroxytryptamine receptor 2C; assay: Functional agonist activity of compound was determined by fluorescence-based assay measuring intracellular calcium mobilization for 5-HT2c receptor cell line
[5] = target: T2, 5-hydroxytryptamine receptor 2A; assay: Functional agonist activity of compound was determined by fluorescence-based assay measuring intracellular calcium mobilization for 5-HT2a receptor cell line
[6] = target: T2, 5-hydroxytryptamine receptor 2A; assay: Functional antagonist activity of compound was determined by fluorescence-based assay measuring intracellular calcium mobilization for 5-HT2a receptor cell line

Compound `NCCc1cn2c3c(cccc13)CCC2` has a Ratio [1] of 19.4, a Ki [2] of 0.041 µM and a Ki [3] of 0.794 µM. The EC50 [4] was 0.0002 µM and the EC50 [5] was 0.145 µM.
For `CNCCc1cn2c3c(cc(F)cc13)CCC2C` (centres undefined), the EC50 [6] was 1.1 µM, the Ratio [1] was 44 and the Ki [2] was 0.033 µM. The Ki [3] was 1.46 µM, the EC50 [4] was 0.18 µM and the EC50 [5] was > 10 µM.
Compound `NCCc1cn2c3c(cc(Cl)cc13)SCC2` has a Ratio [1] of 13.4, a Ki [2] of 0.047 µM and a Ki [3] of 0.631 µM. It also gave an EC50 [4] of 0.00023 µM and an EC50 [5] of 0.348 µM.
Work on `Cc1c(CCN)c2cc(F)cc3c2n1C(C)CC3` (centres undefined) yielded a Ratio [1] of 4.9, a Ki [2] of 0.194 µM and a Ki [3] of 0.954 µM. The EC50 [4] was 0.041 µM.
`CC1CCc2cc(F)cc3c(CCN)cn1c23` (centres undefined) showed a Ratio [1] of 130, a Ki [2] of 0.018 µM and a Ki [3] of 2.34 µM. For the same compound, the EC50 [4] was 0.0057 µM and the EC50 [5] was 0.269 µM.
`Cc1c(CCN)c2cccc3c2n1CCC3` gave a Ratio [1] of 3, a Ki [2] of 0.225 µM and a Ki [3] of 0.676 µM. The EC50 [4] was 0.009 µM.
